Reference: patent publication US9383348B2, “Compositions and methods for treating lung disorders” (priority 2008, dated 2016)

Key:
[1] = system: cytokine (IL-1 and IFN-γ) insufflated rats; experiment: IL-1 and IFN-γ insufflation inflammatory acute lung injury (ARDS) in rats; format: in vivo
Protocol: Insufflating IL-1 and interferon-γ (IFN-γ) produced an inflammatory acute lung injury (ARDS) in rats 24 hours later (9). Cytokine insufflated rats had increased lung lavage LDH concentrations (FIG. 2A) and neutrophil numbers (FIG. 2B) compared to saline insufflated control rats. […] Lavage LDH levels paralleled other measures of lung injury including increased epithelial-derived cytokeratin 18 and endothelial-derived angiotensin converting enzyme (ACE) levels and morphologic evidence of inflammation and injury.
Remarkably, protection occurred with ERGO administered post-insult even after some neutrophils had invaded the lung.
[…] Each value is the mean +/−SEM of 3 to 6 determinations.

IL-1 insufflated rats = experiment: IL-1 insufflation inflammatory acute lung injury (ARDS) in rats; format: in vivo; settings: NAC 150 mg/kg intravenously either just before or 2½ hours after IL-1 insufflation; 5 hours; compared to untreated IL-1 insufflated rats
Protocol: Insufflating IL-1 produced an inflammatory acute lung injury (ARDS, FIG. 1A) in rats 5 hours later, which was associated with increases in lung lavage neutrophils (FIG. 1B), expired H2O2 levels (FIG. 1C) and lung GSSG levels (FIG. 1D). In contrast, rats administered NAC (150 mg/kg intravenously) either just before or 2½ hours after IL-1 insufflation had decreased lung leak index, lung lavage neutrophil numbers, expired H2O2 levels and lung GSSG levels compared to untreated rats insufflated with IL-1.

[2] = single intravenous bolus 15 mg/kg, 1 hour before cytokine insufflation, compared to untreated cytokine insufflated rats
[3] = single intravenous bolus 150 mg/kg, 18 hours after cytokine insufflation, compared to untreated cytokine insufflated rats
[4] = single intravenous injection 150 mg/kg, 1 hour before IL-1 and IFN-γ insufflation, 24 hours

C[N+](C)(C)[C@@H](Cc1c[nH]c(=S)[nH]1)C(=O)[O-] [ERGO, ergothioneine]
lung injury [1, 2]: less | lung neutrophils [1, 2]: less | lung neutrophil numbers [1, 3]: reduction in the severity | markers of alveolar capillary membrane injury [1, 3]: reduction in the severity | lung inflammation ([1]; single intravenous bolus 150 mg/kg, 18 hours after cytokine insufflation, data not shown): reduction in the severity | lung lavage LDH concentrations [1, 4]: decreased | lung lavage neutrophil concentrations [1, 4]: decreased | lung lavage total leukocyte concentrations [1, 4]: decreased

CC(=O)N[C@@H](CS)C(=O)O [NAC, N-acetylcysteine]
expired H2O2 levels (IL-1 insufflated rats): decreased | lung GSSG levels (IL-1 insufflated rats): decreased | lung lavage neutrophil numbers (IL-1 insufflated rats): decreased | lung leak index (IL-1 insufflated rats): decreased
